Results reported in patent US20260083742A1, “HOMOLOGOUS RECOMBINATION REPAIR DEFICIENCY (HRD) AS A PREDICTIVE BIOMARKER FOR TREATING CANCER WITH WEE1 INHIBITORS” (Zeno Management, Inc., priority 2023, published 2026).

Tests used:
[1] = tested on: uterine serous carcinoma (USC) or high-grade serous ovarian cancer (HGSOC); assay: Azenosertib in subjects with USC or HGSOC grouped by HRRm status: tumor response and progression free survival; type: in vivo, human; conditions: for tumor size change, median: USC population, azenosertib 300 mg or more; for progression free survival: subjects treated with 300+mg azenosertib
Method: Subjects with uterine serous carcinoma (USC) or high-grade serous ovarian cancer (HGSOC) were treated with azenosertib and grouped by azenosertib dose of lower than 300 mg (LT300) or at or greater than 300 mg azenosertib (300+mg). […] Total subjects in parenthesis includes all subjects in the study including subjects receiving LT300.
Subjects selected in Table 1 were evaluated for tumor response when treated with doses of 300 mg or more of azenosertib or with lower than 300 mg of azenosertib. In the USC population treated with azenosertib of 300 mg or more (300+), HRRm positivity was associated with better tumor response (p=0.01). (FIG. 1B and FIG. 1C). The HRRm median was −33% and HRR wt median was −5%. […] HRRm subject population was associated with 8.3 months of progression free survival, compared to HRR wt subject population with 4.2 months progression free survival. (FIG. 1D). HRRm status was associated with better progression free survival in subjects treated with at least 300 mg azenosertib, supporting an effective dose of 300 mg or more in HRD subjects.

[2] = tested on: SUM149PT TNBC xenograft (BRCA1 splice isoform Δ11q); assay: SUM149PT TNBC xenograft tumor growth inhibition; type: in vivo, mice
Method: SUM149PT is a TNBC xenograft model harboring a BRCA1 splice isoform (Δ11q) that produces a truncated, partially functional protein which thereby promotes PARP inhibitor resistance. Azenosertib monotherapy and its combination with olaparib or AZD5305 was evaluated in the SUM149PT model in vivo in mice (FIGS. 10A-10B), and Table 12 summarizes the groups and treatments. Single agent treatment with olaparib at 100 mg/kg QD (FIG. 10A) or with the PARP1 selective inhibitor, AZD5305, at 0.1 or 1 mg/kg QD (FIG. 10B) confirmed SUM149PT resistance to PARP inhibitors.

[3] = tested on: MDA-MB-436 Ola^R (BRCA reversion) TNBC cell line; assay: In vitro activity (IC50) in olaparib-resistant MDA-MB-436; type: cell-based; conditions: Homo sapiens; MDA-MB-436 Ola^R; read-out: In vitro activity (IC50) Olaparib^R (BRCA reversion)
Method: (§1) Cells with BRCA reversion mutations may be considered HRD+due to genome instability (such as TAI, LST, LOH). BRCA reversion mutation is an established mechanism of resistance to both platinum-based chemotherapeutic drugs and PARP inhibitors. In vivo exploration of WEE1 inhibitors (azenosertib, adavosertib) and PARP inhibitors (niraparib, olaparib) was evaluated.
(§2) MDA-MB-436 PARP inhibitor-resistant lines were generated by long-term in vitro treatment with a PARP inhibitor that is olaparib (Ola^R) or niraparib (Nir^R).

[4] = tested on: MDA-MB-436 olaparib-resistant model; assay: MDA-MB-436 olaparib-resistant CDX model in vivo; conditions: azenosertib 80 mg/kg
Excerpt: (§3) MDA-MB-436 PARP inhibitor-resistant lines were generated by long-term in vitro treatment with a PARP inhibitor that is olaparib (Ola^R) or niraparib (Nir^R). Resistant cells were confirmed by sequencing to have BRCA1 reversion mutation. The parental MDA-MB-436 cell line remains sensitive to PARP inhibitors as expected (FIG. 5A), while the Nir^R (FIG. 5B) and Ola^R (FIG. 5C) MDA-MB-436 cell lines are no longer sensitive to PARP inhibitors but are sensitive to azenosertib. Azenosertib activity was further confirmed in the PARP inhibitor-resistant MDA-MB-436 CDX model in vivo. […] WEE1 inhibitor or PARP inhibitor treatment in the Parental TNBC animal model (without PARP inhibitor resistance) is shown in FIG. 5D.

[5] = tested on: MDA-MB-436 Nir^R (BRCA reversion) TNBC cell line; assay: In vitro activity (IC50) in niraparib-resistant MDA-MB-436; type: cell-based; conditions: Homo sapiens
Method: as §1, §2

[6] = tested on: MDA-MB-436 niraparib-resistant model; assay: MDA-MB-436 niraparib-resistant CDX model in vivo; conditions: azenosertib 80 mg/kg
Excerpt: as §3

[7] = tested on: parental MDA-MB-436 TNBC cell line; assay: In vitro activity (IC50) in parental MDA-MB-436; type: cell-based; conditions: Homo sapiens; parental MDA-MB-436; read-out: In vitro activity (IC50) Wild Type
Method: as §1, §2

[8] = tested on: HCC1937 PARP inhibitor-resistant TNBC xenograft; assay: HCC1937 TNBC xenograft tumor growth inhibition; type: in vivo, mice
Method: Anti-tumor activity of azenosertib monotherapy or in combination with olaparib was evaluated in the HCC1937 model in vivo in mice (FIG. 9), and Table 11 summarizes the groups and treatments. […] Treatment with monotherapy olaparib at 100 mg/kg QD confirmed HCC1937 resistance to the PARP inhibitor.

[9] = tested on: 22RV1 (prostate cancer cell line) subcutaneous xenografts; assay: 22RV1 subcutaneous xenograft tumor growth inhibition; type: in vivo, CB17 SCID mice
Method: The prostate cancer cell line 22RV1 harbors a BRCA2 pathogenic mutation (HRD+). Briefly, 72 tumor-bearing mice were randomized and assigned into nine groups using a randomized block design based on their tumor volumes with eight mice per group. Each mouse was inoculated subcutaneously at the right flank with 22RV1 tumor cells in 0.2 mL mixture of Matrigel (5×10^6 cells/mouse). Treatments were started when the tumor size reached 199.94 mm^3 for tumor efficacy studies (Day 14 post inoculation). [table] Tumor size was measured twice weekly in two dimensions using caliper and expressed in mm3 using the formula: where a and b were long and short diameters of the tumor. The tumor size was used for calculations of T/C %. The T/C(%) was calculated according to the following formula: Two-way ANOVA followed by Bonferroni post-test was performed to compare tumor volumes among vehicle and other groups.

[10] = monotherapy azenosertib 60 mg/kg QD 5:2
[11] = monotherapy azenosertib 80 mg/kg QD 5:2
[12] = azenosertib 60 mg/kg p.o. qd × 5 3 cycle
[13] = azenosertib 80 mg/kg p.o. qd × 5 3 cycle

SMILES: C=CCn1c(=O)c2cnc(Nc3ccc(N4CCN(C)CC4)cc3)nc2n1-c1ccc2c(n1)[C@@](O)(CC)CC2 [Azenosertib, azenosertib]
- tumor size change, median ([1]; HRR wt): −5%
- tumor size change, median ([1]; HRRm): −33%
- progression free survival ([1]; HRR wt): 4.2 months
- progression free survival ([1]; HRRm): 8.3 months
- TGI [2, 10]: 82%
- TGI [2, 11]: 91%
- TGI ([2]; monotherapy azenosertib 100 mg/kg QD 5:2): 101%
- IC50 [3]: 174 nM
- tumor volume compared to the PARP inhibitor [4]: significant reduction in tumor volume
- IC50 [5]: 185 nM
- tumor volume compared to the PARP inhibitor [6]: significant reduction in tumor volume
- IC50 [7]: 282 nM
- tumor growth inhibition [8, 10]: 80%
- tumor growth inhibition [8, 11]: 89%
- % TGI Day 5 [9, 12]: 54.08%
- % TGI Day 8 [9, 12]: 32.68%
- % TGI Day 12 [9, 12]: 44.02%
- % TGI Day 15 [9, 12]: 26.61%
- % TGI Day 19 [9, 12]: 14.55%
- % TGI Day 5 [9, 13]: 38.26%
- % TGI Day 8 [9, 13]: 23.80%
- % TGI Day 12 [9, 13]: 26.16%
- % TGI Day 15 [9, 13]: 19.47%
- % TGI Day 19 [9, 13]: 38.13%
